Measured values as given in patent US20130005718A1 (priority 2009, published 2013).
pEC50: −log10 of the molar value. Where “and” joins values, the source holds several entries; their conditions need not be identical. Equal entries are not always repeated. Entries after “also recorded” stand apart in the source; their conditions may differ. Where two headings read alike, the source gives them in different places.

Assays:
HCN1 channels = molecular target: T1, HCN1 channels (Mus musculus, UniProt O88704); test: Two-electrode voltage clamp (TEVC) of HCN1 channel gating in Xenopus oocytes; assay type: cell-based, murine; conditions: for HCN isoform preference (words): HCN1 versus HCN2, 3 or 4
T1 construct: expressed in transfected cells; host or cells: Xenopus oocytes (cRNA injection)

HCN2 = HCN2 (Mus musculus, UniProt O88703); conditions: 20 μM, n=6
Description: (§1) cDNA encoding murine (HCN1, 2 and 4) and human (HCN3) HCN channels were subcloned into pGH19 (HCN1 and 4) or pGHE (HCN2 and HCN3) vectors and amplified in STBL2 cells (Invitrogen Corporation, Carlsbad, Calif.). cRNA was transcribed from NheI (HCN1, HCN3 and HCN4) or SphI (HCN2) linearized DNA using T7 RNA polymerase (Message Machine; Ambion, Houston, Tex.). 11-50 ng RNA was injected into each Xenopus oocyte.
(§2) Recordings were made from Xenopus oocytes 2-5 days after cRNA injection. Cells were maintained in L-15 media without ficoll (Specialty Media, Phillipsburg, N.J.) at 17° C. until use.
(§3) Two microelectrode voltage clamp (TEVC) data, acquired using a Warner Instruments (Hamden, Conn.) OC-725C amplifier, were recorded with Pulse software (HEKA Elektronik, Lambrecht/Pfalz, Germany) following filtering of the wide bandwidth output of the clamp at 2.5 kHz (with a Frequency Devices 902 8-pole Bessel filter) and digitization at 5 kHz using an ITC-18 interface (Instrutech Corporation, Port Washington, N.Y.).
(§4) Microelectrodes were fabricated from 1B120-F4 borosilicate glass (World Precision Instruments, Sarasota, Fla.) and had resistances of 0.1-0.5 MΩ (I passing) and 1-4 MΩ (V sensing) when filled with 3 M KCl. The Ag—AgCl ground wire(s) of the active virtual ground circuit were connected to the bath solution by 3M KCl-2% agar salt bridges placed downstream of, but close to, the oocyte. Recordings were obtained at room temperature (22-24° C.).

HCN3 = HCN3 (Homo sapiens, UniProt Q9P1Z3); conditions: 20 μM, n=6
Description: as §1, §2, §3, §4

HCN4 = HCN4 (Mus musculus, UniProt O70507); conditions: 20 μM, n=4
Description: as §1, §2, §3, §4

[1] = system: PNL-induced mechanical allodynia and hyperalgesia; test: Von Frey fiber test after partial sciatic nerve ligation (PNL); assay type: in vivo, C57 Black/6J mice
[2] = system: PNL-induced thermal hyperalgesia; test: Hind paw withdrawal latency (HPWL) to heat source after PNL; assay type: in vivo, C57 Black/6J mice; conditions: i.p., 15% heat stimulus
righting reflex [3] = conditions: i.p. cumulative up to 60 mg/kg
[4] = variously reported; cited from earlier work
righting reflex [5] = conditions: cited from earlier work
[6] = cited from earlier work
GABAA-Rs = conditions: cited from earlier work
[7] = in vivo; cited from earlier work
[8] = HCN1 V1/2 dose-response, relative to 2,6-DTBP

T1 sequence (O88704 whole entry, canonical isoform): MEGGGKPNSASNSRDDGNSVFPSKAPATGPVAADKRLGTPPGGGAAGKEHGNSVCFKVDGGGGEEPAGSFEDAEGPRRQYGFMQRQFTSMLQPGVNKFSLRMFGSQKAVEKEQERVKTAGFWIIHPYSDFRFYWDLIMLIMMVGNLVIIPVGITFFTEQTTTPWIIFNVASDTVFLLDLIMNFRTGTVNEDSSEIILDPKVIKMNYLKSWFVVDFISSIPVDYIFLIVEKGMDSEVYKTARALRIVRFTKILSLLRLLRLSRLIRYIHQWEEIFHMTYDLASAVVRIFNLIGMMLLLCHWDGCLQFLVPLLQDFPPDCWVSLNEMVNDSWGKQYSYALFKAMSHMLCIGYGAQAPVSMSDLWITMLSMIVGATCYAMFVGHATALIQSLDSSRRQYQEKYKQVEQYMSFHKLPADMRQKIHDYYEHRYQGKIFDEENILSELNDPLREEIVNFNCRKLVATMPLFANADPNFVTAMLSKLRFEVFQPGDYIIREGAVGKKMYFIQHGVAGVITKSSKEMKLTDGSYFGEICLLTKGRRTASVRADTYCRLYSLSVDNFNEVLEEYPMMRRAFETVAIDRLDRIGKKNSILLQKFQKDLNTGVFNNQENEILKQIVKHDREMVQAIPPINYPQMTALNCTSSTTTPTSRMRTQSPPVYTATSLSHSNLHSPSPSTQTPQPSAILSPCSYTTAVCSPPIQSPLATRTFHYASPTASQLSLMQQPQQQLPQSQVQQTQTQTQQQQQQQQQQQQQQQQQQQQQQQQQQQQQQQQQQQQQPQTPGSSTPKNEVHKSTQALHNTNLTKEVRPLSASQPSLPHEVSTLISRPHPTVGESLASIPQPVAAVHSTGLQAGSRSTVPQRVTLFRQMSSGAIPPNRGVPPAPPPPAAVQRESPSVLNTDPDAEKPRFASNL
Sequence of HCN4 (O70507 whole entry): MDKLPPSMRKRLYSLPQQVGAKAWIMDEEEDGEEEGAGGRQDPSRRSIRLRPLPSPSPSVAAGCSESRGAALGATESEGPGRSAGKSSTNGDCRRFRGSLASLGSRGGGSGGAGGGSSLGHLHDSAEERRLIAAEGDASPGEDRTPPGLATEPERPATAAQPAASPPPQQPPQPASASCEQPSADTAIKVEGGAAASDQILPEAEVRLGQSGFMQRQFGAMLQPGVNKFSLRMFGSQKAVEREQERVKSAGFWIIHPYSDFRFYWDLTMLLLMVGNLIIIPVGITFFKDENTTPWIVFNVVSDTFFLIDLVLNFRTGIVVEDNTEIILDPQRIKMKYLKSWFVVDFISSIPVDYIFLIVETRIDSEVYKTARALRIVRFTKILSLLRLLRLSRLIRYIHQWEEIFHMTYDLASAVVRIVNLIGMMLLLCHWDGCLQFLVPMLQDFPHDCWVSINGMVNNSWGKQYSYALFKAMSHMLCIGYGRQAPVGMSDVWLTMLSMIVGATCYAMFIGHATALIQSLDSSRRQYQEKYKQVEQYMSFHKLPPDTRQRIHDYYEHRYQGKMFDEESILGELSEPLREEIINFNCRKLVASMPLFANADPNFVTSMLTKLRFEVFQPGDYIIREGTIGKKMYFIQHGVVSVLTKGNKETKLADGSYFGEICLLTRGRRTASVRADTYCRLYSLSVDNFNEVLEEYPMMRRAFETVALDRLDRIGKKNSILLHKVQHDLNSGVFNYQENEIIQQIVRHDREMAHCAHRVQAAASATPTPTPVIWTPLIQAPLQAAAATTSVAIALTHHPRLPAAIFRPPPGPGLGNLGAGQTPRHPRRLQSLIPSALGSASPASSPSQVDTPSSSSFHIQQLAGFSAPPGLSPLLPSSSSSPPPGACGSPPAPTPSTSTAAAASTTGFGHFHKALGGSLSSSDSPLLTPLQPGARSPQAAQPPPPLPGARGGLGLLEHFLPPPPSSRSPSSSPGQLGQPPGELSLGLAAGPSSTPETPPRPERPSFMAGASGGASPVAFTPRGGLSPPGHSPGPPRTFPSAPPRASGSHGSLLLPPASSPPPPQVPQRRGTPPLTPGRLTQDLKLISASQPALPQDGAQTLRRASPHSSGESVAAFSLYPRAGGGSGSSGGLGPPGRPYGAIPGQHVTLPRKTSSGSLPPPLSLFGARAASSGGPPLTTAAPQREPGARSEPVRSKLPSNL
Sequence of HCN2 (O88703 whole entry): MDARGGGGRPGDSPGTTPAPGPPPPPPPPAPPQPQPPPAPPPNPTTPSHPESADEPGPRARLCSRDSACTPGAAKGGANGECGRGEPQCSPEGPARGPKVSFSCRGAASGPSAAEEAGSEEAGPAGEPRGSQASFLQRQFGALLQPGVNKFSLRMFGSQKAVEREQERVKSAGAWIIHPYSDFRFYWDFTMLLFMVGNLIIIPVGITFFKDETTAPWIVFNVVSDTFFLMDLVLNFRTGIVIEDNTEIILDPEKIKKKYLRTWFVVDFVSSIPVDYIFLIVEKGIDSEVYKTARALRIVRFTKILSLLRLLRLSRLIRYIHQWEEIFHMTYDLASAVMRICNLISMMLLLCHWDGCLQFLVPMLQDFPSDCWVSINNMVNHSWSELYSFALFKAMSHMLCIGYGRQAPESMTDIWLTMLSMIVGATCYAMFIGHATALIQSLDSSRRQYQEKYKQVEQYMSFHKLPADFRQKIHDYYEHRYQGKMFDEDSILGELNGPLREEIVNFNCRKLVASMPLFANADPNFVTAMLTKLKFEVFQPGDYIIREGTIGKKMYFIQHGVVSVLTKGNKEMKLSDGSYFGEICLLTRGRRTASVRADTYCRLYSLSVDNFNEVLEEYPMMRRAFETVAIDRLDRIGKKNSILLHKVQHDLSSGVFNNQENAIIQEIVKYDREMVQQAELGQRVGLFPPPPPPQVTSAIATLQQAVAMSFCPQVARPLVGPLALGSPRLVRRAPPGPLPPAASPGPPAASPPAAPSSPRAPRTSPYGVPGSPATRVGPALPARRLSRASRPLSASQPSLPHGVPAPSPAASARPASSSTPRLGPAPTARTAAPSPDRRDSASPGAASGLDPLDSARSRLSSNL
Sequence of HCN3 (Q9P1Z3 whole entry): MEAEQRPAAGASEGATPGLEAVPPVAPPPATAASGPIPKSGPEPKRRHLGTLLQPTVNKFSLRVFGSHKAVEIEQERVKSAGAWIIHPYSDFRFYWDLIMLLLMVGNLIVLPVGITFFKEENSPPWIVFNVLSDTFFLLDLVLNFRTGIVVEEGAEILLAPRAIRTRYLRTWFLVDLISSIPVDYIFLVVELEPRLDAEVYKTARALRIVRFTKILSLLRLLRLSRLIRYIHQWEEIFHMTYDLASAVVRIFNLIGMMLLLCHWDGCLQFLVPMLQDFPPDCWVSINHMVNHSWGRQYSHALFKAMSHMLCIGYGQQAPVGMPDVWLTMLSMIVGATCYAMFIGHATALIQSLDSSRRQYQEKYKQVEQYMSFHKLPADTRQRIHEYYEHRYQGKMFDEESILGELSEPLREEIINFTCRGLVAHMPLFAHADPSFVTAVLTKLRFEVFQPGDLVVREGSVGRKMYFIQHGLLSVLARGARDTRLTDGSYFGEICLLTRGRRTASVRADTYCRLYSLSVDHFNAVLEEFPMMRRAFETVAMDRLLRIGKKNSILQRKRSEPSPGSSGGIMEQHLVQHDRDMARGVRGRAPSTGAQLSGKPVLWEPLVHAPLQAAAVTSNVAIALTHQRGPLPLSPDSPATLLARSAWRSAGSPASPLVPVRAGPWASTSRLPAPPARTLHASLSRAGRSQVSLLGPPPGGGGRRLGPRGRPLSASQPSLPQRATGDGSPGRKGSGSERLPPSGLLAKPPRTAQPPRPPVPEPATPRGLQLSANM

CC(C)c1cccc(C(C)C)c1O [propofol]
pEC50 (HCN1 channels; EC50 for hyperpolarization of V1/2 of HCN1 gating (Hill fit), 20 min incubation, Xenopus oocytes, TEVC): 4.89 to 5.15 and 4.89 and ~4.89
HCN isoform preference (words) (HCN1 channels): preferentially inhibits HCN1 with little efficacy against HCN2, 3 or 4 channels
apparent stoichiometry h (Hill coefficient) (HCN1 channels; Hill fit of dose-response): 1.1
concentration at which shift in HCN1 V1/2 was significant (HCN1 channels; versus DMSO control): ≥ 3 µM
ΔV1/2 of HCN2 (HCN2): −9.1 mV
ΔV1/2 of HCN3 (HCN3): −0.6 mV
ΔV1/2 of HCN4 (HCN4): 0.1 mV
difference between PW IPSI and PW CONTRA ([1]; 20 mg/kg i.p.): significantly reduced
PW IPSI response ([1]; 60 mg/kg i.p. cumulative): indistinguishable from the control value of PW CONTRA
effect on PW CONTRA, mechanical nociception ([1]; 20 to 60 mg/kg i.p.): no statistically significant effect
neuropathic analgesia occurs at doses lower than hypnosis/anesthesia ([1]; i.p.): 3-10 fold and 3 to 10 fold
mechanical hyperalgesia/allodynia in ipsilateral paw ([1]; i.p. cumulative dosing, post-PNL mice): markedly reduced the mechanical hyperalgesia observed in the ipsilateral paw; also recorded: selectively suppresses partial sciatic nerve ligation (PNL)-induced mechanical allodynia and hyperalgesia
PW IPSI as a function of control PW CONTRA (ratio) after drug ([1]; i.p., 2.5 to 4 g fibers averaged, 3.3 before drug, unity = complete amelioration): 1.6
reversal of the neuropathic phenotype ([1]; subhypnotic i.p. doses, 2.5 to 4 g fibers averaged): about 75%
mechanical threshold, Logit transformation (allodynia, words) ([1]; threshold set at PW of 0.1): selectively restored the mechanical threshold to that observed in the uninjured paw
thermal hyperalgesia, ipsilateral HPWL (words) [2]: powerfully and preferentially relieved neuropathic thermal hyperalgesia; also recorded: relieve the neuropathic behavior; also recorded: selectively ameliorate PNL-induced thermal hyperalgesia
thermal nociception, contralateral HPWL [2]: without significantly altering nociceptive behavior
loss of righting reflex (righting reflex [3]): No animals lost their righting reflex
Plasma [propofol] Total (Engdahl et al., 1998, calculated with MW 178.3): 12.3 µM
estimated serum free concentration evoking analgesia (estimated from 3 to 10 fold lower doses than anesthesia): 0.1 to 0.3 µM
CSF concentration required for anesthesia relative to plasma (from Table 2): approximately one-tenth
aqueous solubility limit [4]: 864 to 1740 µM
i.p. dose required for obviation of righting reflex (righting reflex [5]; i.p.): greater than 100 mg/kg
intravenous dose for anesthesia (righting reflex [5]; mice, i.v.): 5 mg/kg
Plasma [propofol] Total ([6]; Engdahl et al., 1998): 2.2 µg/mL
steady-state free concentration in the plasma ([6]; during general anesthesia): ~1 µM

CCC(C)c1cccc(C(C)CC)c1O (stereo not shown) [2,6-DSBP, 2,6-di-sec-butylphenol]
HCN1 antagonism (HCN1 channels): weak HCN1 antagonist
offset of the 2,6-DTBP Hill fit line needed to describe the data (HCN1 channels; [8]): 15 fold
allosteric modulation of GABAA-Rs (GABAA-Rs): potent allosteric activators of the chloride channels
anesthetic activity [7]: potent anesthetics

CC(C)(C)c1ccc(O)c(C(C)(C)C)c1 [2,4-DTBP, 2,4-di-tert-butylphenol]
HCN1 antagonism (HCN1 channels): effective antagonist of HCN1
offset of the 2,6-DTBP Hill fit line needed to describe the data (HCN1 channels): 2 fold
HCN isoform preference (words) (HCN1 channels): preferentially inhibit HCN1 with little efficacy against HCN2, 3 or 4 channels
allosteric modulation of GABAA-Rs (GABAA-Rs): ineffective

CCC(C)c1ccc(O)c(C(C)CC)c1 (stereo not shown) [2,4-DSBP, 2,4-di-sec-butylphenol]
offset of the 2,6-DTBP Hill fit line needed to describe the data (HCN1 channels; [8]): 23 fold
allosteric modulation of GABAA-Rs (GABAA-Rs): effective agonist of GABAA-Rs; also recorded: potent allosteric activators of the chloride channels
anesthetic activity [7]: potent anesthetics
